Literature values as cited in PMC8288134, “Synthesis, potential antitumor activity, cell cycle analysis, and multitarget mechanisms of novel hydrazones incorporating a 4-methylsulfonylbenzene scaffold: a molecular docking study” (Journal of Enzyme Inhibition and Medicinal Chemistry, 2021).

Assays:
SK-MEL-2 = system: SK-MEL-2; parameters: method as in https://dtp.cancer.gov/dtpstandard/dwindex/index.jsp; settings: reference drugs, ref https://dtp.cancer.gov/dtpstandard/dwindex/index.jsp; cited from earlier work
PRMI-8226 = system: PRMI-8226; parameters: method as in https://dtp.cancer.gov/dtpstandard/dwindex/index.jsp; settings: reference drugs, ref https://dtp.cancer.gov/dtpstandard/dwindex/index.jsp; cited from earlier work
SK-OV-3 = system: SK-OV-3; parameters: method as in https://dtp.cancer.gov/dtpstandard/dwindex/index.jsp; settings: reference drugs, ref https://dtp.cancer.gov/dtpstandard/dwindex/index.jsp; cited from earlier work
NCI-H322M = system: NCI-H322M; parameters: method as in https://dtp.cancer.gov/dtpstandard/dwindex/index.jsp; settings: reference drugs, ref https://dtp.cancer.gov/dtpstandard/dwindex/index.jsp; cited from earlier work
[1] = system: CNS cancer tumour cell lines; settings: cited from earlier work; for GI50: read-out: GI50 (subpanel average), reference drugs, ref https://dtp.cancer.gov/dtpstandard/dwindex/index.jsp; for CC50: read-out: LC50 (subpanel average), reference drugs, ref https://dtp.cancer.gov/dtpstandard/dwindex/index.jsp; for TGI (subpanel average): reference drugs, ref https://dtp.cancer.gov/dtpstandard/dwindex/index.jsp
SN12C = system: SN12C; parameters: method as in https://dtp.cancer.gov/dtpstandard/dwindex/index.jsp; settings: reference drugs, ref https://dtp.cancer.gov/dtpstandard/dwindex/index.jsp; cited from earlier work
SR = system: SR; parameters: method as in https://dtp.cancer.gov/dtpstandard/dwindex/index.jsp; settings: reference drugs, ref https://dtp.cancer.gov/dtpstandard/dwindex/index.jsp; cited from earlier work
UACC-257 = system: UACC-257; parameters: method as in https://dtp.cancer.gov/dtpstandard/dwindex/index.jsp; settings: reference drugs, ref https://dtp.cancer.gov/dtpstandard/dwindex/index.jsp; cited from earlier work
KM12 = system: KM12; parameters: method as in https://dtp.cancer.gov/dtpstandard/dwindex/index.jsp; settings: reference drugs, ref https://dtp.cancer.gov/dtpstandard/dwindex/index.jsp; cited from earlier work
BT-549 = system: BT-549; parameters: method as in https://dtp.cancer.gov/dtpstandard/dwindex/index.jsp; settings: reference drugs, ref https://dtp.cancer.gov/dtpstandard/dwindex/index.jsp; cited from earlier work
U251 = system: U251; parameters: method as in https://dtp.cancer.gov/dtpstandard/dwindex/index.jsp; settings: reference drugs, ref https://dtp.cancer.gov/dtpstandard/dwindex/index.jsp; cited from earlier work
[2] = system: NSC lung cancer tumour cell lines; settings: cited from earlier work; for GI50: read-out: GI50 (subpanel average), reference drugs, ref https://dtp.cancer.gov/dtpstandard/dwindex/index.jsp; for CC50: read-out: LC50 (subpanel average), reference drugs, ref https://dtp.cancer.gov/dtpstandard/dwindex/index.jsp; for TGI (subpanel average): reference drugs, ref https://dtp.cancer.gov/dtpstandard/dwindex/index.jsp
DU-145 = system: DU-145; parameters: method as in https://dtp.cancer.gov/dtpstandard/dwindex/index.jsp; settings: reference drugs, ref https://dtp.cancer.gov/dtpstandard/dwindex/index.jsp; cited from earlier work
[3] = system: colon cancer tumour cell lines; settings: cited from earlier work; for GI50: read-out: GI50 (subpanel average), reference drugs, ref https://dtp.cancer.gov/dtpstandard/dwindex/index.jsp; for CC50: read-out: LC50 (subpanel average), reference drugs, ref https://dtp.cancer.gov/dtpstandard/dwindex/index.jsp; for TGI (subpanel average): reference drugs, ref https://dtp.cancer.gov/dtpstandard/dwindex/index.jsp
SNB-75 = system: SNB-75; parameters: method as in https://dtp.cancer.gov/dtpstandard/dwindex/index.jsp; settings: reference drugs, ref https://dtp.cancer.gov/dtpstandard/dwindex/index.jsp; cited from earlier work
EKVX = system: EKVX; parameters: method as in https://dtp.cancer.gov/dtpstandard/dwindex/index.jsp; settings: reference drugs, ref https://dtp.cancer.gov/dtpstandard/dwindex/index.jsp; cited from earlier work
HT29 = system: HT29; parameters: method as in https://dtp.cancer.gov/dtpstandard/dwindex/index.jsp; settings: reference drugs, ref https://dtp.cancer.gov/dtpstandard/dwindex/index.jsp; cited from earlier work
HOP-62 = system: HOP-62; parameters: method as in https://dtp.cancer.gov/dtpstandard/dwindex/index.jsp; settings: reference drugs, ref https://dtp.cancer.gov/dtpstandard/dwindex/index.jsp; cited from earlier work
[4] = system: renal cancer tumour cell lines; settings: cited from earlier work; for GI50: read-out: GI50 (subpanel average), reference drugs, ref https://dtp.cancer.gov/dtpstandard/dwindex/index.jsp; for CC50: read-out: LC50 (subpanel average), reference drugs, ref https://dtp.cancer.gov/dtpstandard/dwindex/index.jsp; for TGI (subpanel average): reference drugs, ref https://dtp.cancer.gov/dtpstandard/dwindex/index.jsp
M14 = system: M14; parameters: method as in https://dtp.cancer.gov/dtpstandard/dwindex/index.jsp; settings: reference drugs, ref https://dtp.cancer.gov/dtpstandard/dwindex/index.jsp; cited from earlier work
MDA-MB-435 = system: MDA-MB-435; parameters: method as in https://dtp.cancer.gov/dtpstandard/dwindex/index.jsp; settings: reference drugs, ref https://dtp.cancer.gov/dtpstandard/dwindex/index.jsp; cited from earlier work
MOLT-4 = system: MOLT-4; parameters: method as in https://dtp.cancer.gov/dtpstandard/dwindex/index.jsp; settings: reference drugs, ref https://dtp.cancer.gov/dtpstandard/dwindex/index.jsp; cited from earlier work
SF-539 = system: SF-539; parameters: method as in https://dtp.cancer.gov/dtpstandard/dwindex/index.jsp; settings: reference drugs, ref https://dtp.cancer.gov/dtpstandard/dwindex/index.jsp; cited from earlier work
HCT-15 = system: HCT-15; parameters: method as in https://dtp.cancer.gov/dtpstandard/dwindex/index.jsp; settings: reference drugs, ref https://dtp.cancer.gov/dtpstandard/dwindex/index.jsp; cited from earlier work

Row | SMILES | GI50 (SK-MEL-2) [µM] | GI50 (PRMI-8226) [µM] | GI50 (SK-OV-3) [µM] | GI50 (NCI-H322M) [µM] | GI50 [1] [µM] | GI50 (SN12C) [µM] | GI50 (SR) [µM] | GI50 (UACC-257) [µM] | GI50 (KM12) [µM] | GI50 (U251) [µM] | GI50 (DU-145) [µM] | GI50 (SNB-75) [µM] | GI50 (EKVX) [µM] | GI50 (HT29) [µM] | GI50 (HOP-62) [µM] | GI50 (M14) [µM] | GI50 (MDA-MB-435) [µM] | GI50 (MOLT-4) [µM] | GI50 (SF-539) [µM] | GI50 (HCT-15) [µM] | further results
1 | C#Cc1cccc(Nc2ncnc3cc(OCCOC)c(OCCOC)cc23)c1 [Erlotinib, erlotinib] | 6.31 | 25.1 | 0.5 | 0.1 | 17 | 1.58 | 10 | 100 | 79.4 | 25.1 | 1.99 | 12.6 | 0.199 | 63.1 | 15.8 | 6.31 | 19.9 | 25.1 | 19.9 | 3.98 | CC50 [1]: > 100 µM; TGI (subpanel average) [1]: 82.11 µM; GI50 (BT-549): 31.6 µM; GI50 [2]: 13.1 µM; CC50 [2]: 97.7 µM; TGI (subpanel average) [2]: 73.76 µM; GI50 [3]: 51.7 µM; CC50 [3]: > 100 µM; TGI (subpanel average) [3]: c (Compounds showed values ≥ 100 µM); GI50 [4]: 2.46 µM; CC50 [4]: 89.2 µM; TGI (subpanel average) [4]: 42.59 µM
2 | CS(=O)(=O)c1ccc(C(=O)Nc2ccc(Cl)c(-c3ccccn3)c2)c(Cl)c1 [Vismodegib, vismodegib] | 39.8 | 31.6 | – | 100 | – | 39.8 | 39.8 | 50.1 | 31.6 | 50.1 | 50.1 | 25.1 | 39.8 | 25.1 | 79.4 | 31.6 | 31.6 | 31.6 | 50.1 | 31.6 | –
3 | Cc1ccc(-c2cc(C(F)(F)F)nn2-c2ccc(S(N)(=O)=O)cc2)cc1 [Celecoxib, celecoxib] | 15.8 | 3.98 | 19.9 | 19.9 | 17.2 | 15.8 | 15.8 | 19.9 | 15.8 | 15.8 | 15.8 | 15.8 | 19.9 | 15.8 | 63.1 | 63.1 | 15.8 | 15.8 | 19.9 | 15.8 | CC50 [1]: 58.8 µM; TGI (subpanel average) [1]: 31.62 µM; GI50 (BT-549): 19.9 µM; GI50 [2]: 25.1 µM; CC50 [2]: 67.1 µM; TGI (subpanel average) [2]: 41.93 µM; GI50 [3]: 20.7 µM; CC50 [3]: 66.5 µM; TGI (subpanel average) [3]: 41.39 µM; GI50 [4]: 19.9 µM; CC50 [4]: 61.2 µM; TGI (subpanel average) [4]: 41.19 µM
